ChEMBL document CHEMBL1201862, “PubChem BioAssay data set” (2004)
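Results reflect a 48-hour exposure of cells in 96-well plates to compound at five concentrations. GI50 marks 50% less growth.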 Calls of active or inactive are those of the source. Rule as the data show it: active = GI50 up to about 1.1 µM and inactive = higher.

How the values were obtained:
Assay in all cases: inhibition of tumour cell growth, NCI panel, 48 h
A498 = test system: A498
A549 = test system: A549
HCC 2998 = test system: HCC 2998
HT-29 = test system: HT-29
Hs-578T = test system: Hs-578T
IGROV-1 = test system: IGROV-1
K562 = test system: K562
KM-20L2 = test system: KM-20L2
MCF7 = test system: MCF7
MDA-MB-231 = test system: MDA-MB-231
MDA-N = test system: MDA-N
NCI-H226 = test system: NCI-H226
NCI-H23 = test system: NCI-H23
NCI-H460 = test system: NCI-H460
SF-268 = test system: SF-268
SR = test system: SR
SW-620 = test system: SW-620
T47D = test system: T47D
UO-31 = test system: UO-31

Question: Which results are given for `COc1cc(-c2[nH]ccc2Cl)oc1C1=C2N=C3C=C2C(C(C)C)C1CCCCCCCC3` (centres undefined)?
Answer: GI50 (A498): 2160 nM (inactive); GI50 (A549): 912 nM (active); GI50 (HCC 2998): 341 nM (active); GI50 (HT-29): 252 nM (active); GI50 (Hs-578T): 253 nM (active); GI50 (IGROV-1): 993 nM (active); GI50 (K562): 403 nM (active); GI50 (KM-20L2): 308 nM (active); GI50 (MCF7): 603 nM (active); GI50 (MDA-MB-231): 279 nM (active); GI50 (MDA-N): 466 nM (active); GI50 (NCI-H226): 1060 nM (active); GI50 (NCI-H23): 738 nM (active); GI50 (NCI-H460): 319 nM (active); GI50 (SF-268): 1080 nM (active); GI50 (SR): 292 nM (active); GI50 (SW-620): 386 nM (active); GI50 (T47D): 272 nM (active); GI50 (UO-31): 1030 nM (active)
